Data published in patent US9637491B2, “Pyrazolo[4,3-D]pyrimidines as kinase inhibitors” (Origenis GmbH, priority 2012, dated 2017).

Molecular target: T1, SYK kinase (Homo sapiens, UniProt P43405)
T1 construct: purchased Invitrogen, Carlsbad
Assay: SYK assay (OMNIA Kinase Assay, Invitrogen)
Format: biochemical
Conditions: SYK Activities; 1 mM ATP, 10 μM Omnia Peptide Substrate Tyr 7, 30° C.
Outline: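 Continuous-read fluorescence kinase assay: SOX-labelled Tyr 7 peptide (10 μM) with 1 mM ATP and 0.2 mM DTT, 30° C, reaction started by adding SYK. Fluorescence (ex 360/em 485 nm) read every 30 s for 30 min. IC50 from sigmoidal fit of reaction velocity versus inhibitor concentration.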

| SMILES | IC50 [nM] |
| --- | --- |
| c1ccc(-n2cc(Nc3nc(-c4ccc5cn[nH]c5c4)nc4cn[nH]c34)cn2)nc1 [Example 472, 5-(1H-indazol-6-yl)-N-(1-(pyridin-2-yl)-1H-pyrazol-4-yl)-1H-pyrazolo[4,3-d]pyrimidin-7-amine] | 100 to 1000 |
| CC(=O)Nc1cc(Nc2nc(-c3c(F)cccc3F)nc3cn[nH]c23)ccc1N1CCN(C(C)=O)CC1 [Example 538, N-(2-(4-acetylpiperazin-1-yl)-5-((5-(2,6-difluorophenyl)-1H-pyrazolo[4,3-d]pyrimidin-7-yl)amino)phenyl)acetamide] | 100 to 1000 |
| Fc1ccccc1-c1nc(Nc2ccc(N3CCOCC3)c(F)c2)c2[nH]ncc2n1 [Example 24, N-(3-fluoro-4-morpholinophenyl)-5-(2-fluorophenyl)-1H-pyrazolo[4,3-d]pyrimidin-7-amine] | 100 to 1000 |
| CC(C)Cn1cc(-c2nc(Nc3ccc(N4CCOCC4)cc3)c3[nH]ncc3n2)cn1 [Example 383, 5-(1-isobutyl-1H-pyrazol-4-yl)-N-(4-morpholinophenyl)-1H-pyrazolo[4,3-d]pyrimidin-7-amine] | 100 to 1000 |
| c1coc(-c2nc(Nc3cnn(C4CCOCC4)c3)c3[nH]ncc3n2)n1 [Example 254, 5-(oxazol-2-yl)-N-(1-(tetrahydro-2H-pyran-4-yl)-1H-pyrazol-4-yl)-1H-pyrazolo[4,3-d]pyrimidin-7-amine] | 100 to 1000 |
| O=C1CCCc2ccc(Nc3nc(-c4c(F)cccc4F)nc4cn[nH]c34)cc2N1 [Example 521, 8-((5-(2,6-difluorophenyl)-1H-pyrazolo[4,3-d]pyrimidin-7-yl)amino)-4,5-dihydro-1H-benzo[b]azepin-2(3H)-one] | 100 to 1000 |
| CC(C)(C)N1CCN(c2ccc(Nc3nc(-c4cccc(NS(C)(=O)=O)c4)nc4cn[nH]c34)cc2)CC1 [Example 39] | 100 to 1000 |
| CC(C)n1cc(Nc2nc(-c3ncco3)nc3cn[nH]c23)cn1 [Example 250, N-(1-isopropyl-1H-pyrazol-4-yl)-5-(oxazol-2-yl)-1H-pyrazolo[4,3-d]pyrimidin-7-amine] | 100 to 1000 |
| COCCn1cc(-c2nc(Nc3ccc(N4CCOCC4)cc3)c3[nH]ncc3n2)cn1 [Example 393, 5-(1-(2-methoxyethyl)-1H-pyrazol-4-yl)-N-(4-morpholinophenyl)-1H-pyrazolo[4,3-d]pyrimidin-7-amine] | 100 to 1000 |
| FC(F)(F)Cn1cc(Nc2nc(-c3ccoc3)nc3cn[nH]c23)cn1 [Example 375, 5-(furan-3-yl)-N-(1-(2,2,2-trifluoroethyl)-1H-pyrazol-4-yl)-1H-pyrazolo[4,3-d]pyrimidin-7-amine] | 100 to 1000 |
| CC1CC1c1nc(Nc2cnn(C3CCOCC3)c2)c2[nH]ncc2n1 (centres unmarked) [Example 103, 5-(2-methylcyclopropyl)-N-(1-(tetrahydro-2H-pyran-4-yl)-1H-pyrazol-4-yl)-1H-pyrazolo[4,3-d]pyrimidin-7-amine] | 100 to 1000 |
| c1cc(-c2nc(Nc3ccc(N4CCOCC4)cc3)c3[nH]ncc3n2)no1 [Example 74, 5-(isoxazol-3-yl)-N-(4-morpholinophenyl)-1H-pyrazolo[4,3-d]pyrimidin-7-amine] | 100 to 1000 |
| CC(C)Cn1cc(Nc2nc(C3CCC3)nc3cn[nH]c23)cn1 [Example 234, 5-cyclobutyl-N-(1-isobutyl-1H-pyrazol-4-yl)-1H-pyrazolo[4,3-d]pyrimidin-7-amine] | 100 to 1000 |
| COc1cc(Nc2nc([C@H]3C[C@@H]3c3ccccc3)nc3cn[nH]c23)ccc1N1CCOCC1 [Example 508, N-(3-methoxy-4-morpholinophenyl)-5-((1S,2S)-2-phenylcyclopropyl)-1H-pyrazolo[4,3-d]pyrimidin-7-amine] | 100 to 1000 |
| CN(C)C(=O)Cn1cc(Nc2nc(C3CCC3)nc3cn[nH]c23)cn1 [Example 461, 2-(4-((5-cyclobutyl-1H-pyrazolo[4,3-d]pyrimidin-7-yl)amino)-1H-pyrazol-1-yl)-N,N-dimethylacetamide] | 100 to 1000 |
| CC(=O)N1CCN(c2ccc(Nc3nc(-c4c(F)cccc4F)nc4cn[nH]c34)cc2)CC1 [Example 13, 1-(4-(4-((5-(2,6-difluorophenyl)-1H-pyrazolo[4,3-d]pyrimidin-7-yl)amino)phenyl)piperazin-1-yl)ethan-1-one] | 100 to 1000 |
| COCCn1cc(Nc2nc(-c3ccoc3)nc3cn[nH]c23)cn1 [Example 199, 5-(furan-3-yl)-N-(1-(2-methoxyethyl)-1H-pyrazol-4-yl)-1H-pyrazolo[4,3-d]pyrimidin-7-amine] | 100 to 1000 |
| CC(=O)N1CCC(n2cc(Nc3nc(-c4cccc(S(N)(=O)=O)c4)nc4cn[nH]c34)cn2)CC1 [Example 427, 3-(7-((1-(1-acetylpiperidin-4-yl)-1H-pyrazol-4-yl)amino)-1H-pyrazolo[4,3-d]pyrimidin-5-yl)benzenesulfonamide] | 100 to 1000 |
| COc1ccc(Nc2nc(-c3ccc(C)s3)nc3cn[nH]c23)cc1OC [Example 8, N-(3,4-dimethoxyphenyl)-5-(5-methylthiophen-2-yl)-1H-pyrazolo[4,3-d]pyrimidin-7-amine] | 100 to 1000 |
| COCCCn1cc(Nc2nc(-c3ncco3)nc3cn[nH]c23)cn1 [Example 251, N-(1-(3-methoxypropyl)-1H-pyrazol-4-yl)-5-(oxazol-2-yl)-1H-pyrazolo[4,3-d]pyrimidin-7-amine] | 100 to 1000 |
| CC(=O)N1CCN(c2ccc(Nc3nc(-c4ccon4)nc4cn[nH]c34)cc2)CC1 [Example 72, 1-(4-(4-((5-(isoxazol-3-yl)-1H-pyrazolo[4,3-d]pyrimidin-7-yl)amino)phenyl)piperazin-1-yl)ethan-1-one] | 100 to 1000 |

The remaining lines, values ahead:

| IC50 [nM] | SMILES |
| --- | --- |
| 10 to 100 | CC(C)(C)n1cc(Nc2nc(-c3ccco3)nc3cn[nH]c23)cn1 [Example 212, N-(1-(tert-butyl)-1H-pyrazol-4-yl)-5-(furan-2-yl)-1H-pyrazolo[4,3-d]pyrimidin-7-amine] |
| 100 to 1000 | c1ccc(-n2cc(Nc3nc(-c4ccoc4)nc4cn[nH]c34)cn2)nc1 [Example 484, 5-(furan-3-yl)-N-(1-(pyridin-2-yl)-1H-pyrazol-4-yl)-1H-pyrazolo[4,3-d]pyrimidin-7-amine] |
| 100 to 1000 | COCC(COC)n1cc(Nc2nc(-c3cccc(-c4cccnc4)c3)nc3cn[nH]c23)cn1 [Example 467, N-(1-(1,3-dimethoxypropan-2-yl)-1H-pyrazol-4-yl)-5-(3-(pyridin-3-yl)phenyl)-1H-pyrazolo[4,3-d]pyrimidin-7-amine] |
| 100 to 1000 | CCCc1nc(Nc2ccc(N3CCOCC3)cc2)c2[nH]ncc2n1 [Example 386, N-(4-morpholinophenyl)-5-propyl-1H-pyrazolo[4,3-d]pyrimidin-7-amine] |
| 10 to 100 | CC(C)n1cc(-c2nc(Nc3ccc(N4CCOCC4)cc3)c3[nH]ncc3n2)cn1 [Example 421, 5-(1-isopropyl-1H-pyrazol-4-yl)-N-(4-morpholinophenyl)-1H-pyrazolo[4,3-d]pyrimidin-7-amine] |
| 10 to 100 | c1nn(C2CCOCC2)cc1Nc1nc(-c2ccc3[nH]ncc3c2)nc2cn[nH]c12 [Example 178, 5-(1H-indazol-5-yl)-N-(1-(tetrahydro-2H-pyran-4-yl)-1H-pyrazol-4-yl)-1H-pyrazolo[4,3-d]pyrimidin-7-amine] |
| 10 to 100 | c1nn(C2CCOCC2)cc1Nc1nc(C2CCC2)nc2cn[nH]c12 [Example 119, 5-cyclobutyl-N-(1-(tetrahydro-2H-pyran-4-yl)-1H-pyrazol-4-yl)-1H-pyrazolo[4,3-d]pyrimidin-7-amine] |
| < 10 | COCCn1cc(Nc2nc(-c3nc4ccccc4s3)nc3cn[nH]c23)cn1 [Example 456, 5-(benzo[d]thiazol-2-yl)-N-(1-(2-methoxyethyl)-1H-pyrazol-4-yl)-1H-pyrazolo[4,3-d]pyrimidin-7-amine] |
| 10 to 100 | CC(=O)N1CCC(n2cc(Nc3nc(-c4ccc5cn[nH]c5c4)nc4cn[nH]c34)cn2)CC1 [Example 133, 1-(4-(4-((5-(1H-indazol-6-yl)-1H-pyrazolo[4,3-d]pyrimidin-7-yl)amino)-1H-pyrazol-1-yl)piperidin-1-yl)ethan-1-one] |
| 10 to 100 | Nc1cccc(-c2nc(Nc3cnn(C4CCOCC4)c3)c3[nH]ncc3n2)c1 [Example 530, 5-(3-aminophenyl)-N-(1-(tetrahydro-2H-pyran-4-yl)-1H-pyrazol-4-yl)-1H-pyrazolo[4,3-d]pyrimidin-7-amine] |
| 10 to 100 | CC(C)C(C)n1cc(Nc2nc(-c3ccoc3)nc3cn[nH]c23)cn1 (centres unmarked) [Example 482, 5-(furan-3-yl)-N-(1-(3-methylbutan-2-yl)-1H-pyrazol-4-yl)-1H-pyrazolo[4,3-d]pyrimidin-7-amine] |
| 10 to 100 | COCCCn1cc(Nc2nc(C3CC3)nc3cn[nH]c23)cn1 [Example 230, 5-cyclopropyl-N-(1-(3-methoxypropyl)-1H-pyrazol-4-yl)-1H-pyrazolo[4,3-d]pyrimidin-7-amine] |
| 10 to 100 | CC(C)n1cc(Nc2nc(-c3cccc(S(N)(=O)=O)c3)nc3cn[nH]c23)cn1 [Example 426, 3-(7-((1-isopropyl-1H-pyrazol-4-yl)amino)-1H-pyrazolo[4,3-d]pyrimidin-5-yl)benzenesulfonamide] |
| 10 to 100 | NS(=O)(=O)c1cccc(-c2nc(Nc3cnn(CCO)c3)c3[nH]ncc3n2)c1 [Example 526, 3-(7-((1-(2-hydroxyethyl)-1H-pyrazol-4-yl)amino)-1H-pyrazolo[4,3-d]pyrimidin-5-yl)benzenesulfonamide] |
| < 10 | CC(=O)N1CCC(n2cc(Nc3nc(-c4nc5ccccc5s4)nc4cn[nH]c34)cn2)CC1 [Example 458, 1-(4-(4-((5-(benzo[d]thiazol-2-yl)-1H-pyrazolo[4,3-d]pyrimidin-7-yl)amino)-1H-pyrazol-1-yl)piperidin-1-yl)ethan-1-one] |
| 10 to 100 | c1nn(C2CCOCC2)cc1Nc1nc(C2CC2)nc2cn[nH]c12 [Example 118, 5-cyclopropyl-N-(1-(tetrahydro-2H-pyran-4-yl)-1H-pyrazol-4-yl)-1H-pyrazolo[4,3-d]pyrimidin-7-amine] |
| < 10 | COc1cc(Nc2nc(-c3ccc4cn[nH]c4c3)nc3cn[nH]c23)ccc1N1CCOCC1 [Example 54, 5-(1H-indazol-6-yl)-N-(3-methoxy-4-morpholinophenyl)-1H-pyrazolo[4,3-d]pyrimidin-7-amine] |
